Assays:
[1] = test system: Carrageenin induced edema; experiment: Anti-inflammatory Activity (Carrageenin induced edema test); format: in vivo, rat (male Sprague Dawley); details: for % Edema Inhibition, 1 hour / % Edema Inhibition, 3 hours / % Edema Inhibition, 5 hours: oral, 30 min before carrageenin, dose mg/kg: ASA 100, XAA 120, XAA ester 196 (eq. 120 XAA), TAA 60, TAA ester 84.5 (eq. 60 TAA); for % Edema Inhibition, 1 hour: 1 hour after carrageenin; for % Edema Inhibition, 3 hours: 3 hours after carrageenin; for % Edema Inhibition, 5 hours: 5 hours after carrageenin; for anti-inflammatory versus antinociceptive action: conclusion in words from Examples 6 and 7
Protocol: Anti-inflammatory Activity (Carrageenin induced edema test)
Fifteen to twenty male rats of Sprague Dawley strain weighing 150-200 g, were employed for each compound tested. 0.1 ml of 1% carrageenin saline suspension was injected into the subplantar region of the right hind-paw. The test compounds were orally administered 30 minutes prior to the injection of carrageenin and the foot volume was determined 1,3 and 5 hours after the injection of carrageenin. The percent swelling in the foot was obtained by comparing the volume before and after the injection of carrageenin, and the rate of inhibition in the treated animals was calculated.

[2] = test system: gastric epithelium; experiment: Influence on the gastro-intestinal tract (ulceration, pylorus-ligated, method of Shay et al.); format: in vivo, rat (male Sprague Dawley); details: oral, dose mg/kg: phenylbutazone 75, ASA 100, XAA 120, XAA ester 196, TAA 60, TAA ester 84.5; for Increase (of ulceration evaluation): increase over control (distilled water, 3.0), 1 hour; for Evaluation (ulceration of the gastric epithelium): 1 hour after administration, score 0=no hemorrhage sites to 6=perforated ulcer, control 3.0
Protocol: Influence on the gastro-intestinal tract
Ten male rats of Sprague Dawley strain, weighing 200-300 g were used for each compound tested. According to the method of Shay et al. (Shay, H., Komapov, S. A., Feb. S. S., Meranir, D., Gruenstein, M., Siplet, H. Gastroenterology 5, 43, 1945), under anesthesia, the pylorus was ligated and 4 hours later test compounds were orally administered. The animal was sacrificed 1 hour after compound administration. The stomach was removed and examined for macroscopic damage. The ulceration of the gastric epithelium was evaluated by the following evaluation: 0=no hemorrhage sites; 1=some isolated hemorrhagic sites; 2=redness of the gastric epithelium; 3=1 to 5 small ulcers with a diameter smaller than 3 mm; 4=many small ulcers; 5=ulcers-greater than 3 mm; 6=perforated ulcer.

[3] = test system: pain threshold for the inflamed feet (carrageenin); experiment: Analgesic Activity: Randall-Selitto's method; format: in vivo, mouse (male Rockland); details: oral, 30 min before carrageenin; hourly for 3 hours; relative potency (control 0); dose mg/kg: ASA 100, XAA 50, XAA ester 74 (eq. 50 XAA), TAA 50, TAA ester 82 (eq. 50 TAA)
Protocol: Randall-Selitto's method: Ten male mice of Rockland strain weighing 25 g were used for each compound tested. 0.1 ml of 1% carrageenin saline suspension was injected into the subplantar region of the right foot. The test compounds were orally administered 30 minutes before the injection. At hourly intervals for 3 hours after the carrageenin injection, the pain threshold for the inflammed feet determining was measured the amount of pressure with an analgesy meter.

[4] = test system: response threshold on applying pressure to the tail; experiment: Analgesic Activity: Tail pressure test; format: in vivo, mouse (male Rockland); details: oral; 15 and 60 min after administration; relative potency (control 0, ASA 1.00); dose mg/kg: ASA 100, XAA 50, XAA ester 74 (eq. 50 XAA), TAA 50, TAA ester 82 (eq. 50 TAA)
Protocol: Tail pressure test: Ten male mice of Rockland strain weighing 20-25 g were used for each compound tested. The response threshold on applying pressure to the tail was determined with an analgesy meter at 15 and 60 minutes after oral administration of the test compound. The pressure at which a struggle was elicited was read.

Row | SMILES | % Edema Inhibition, 1 hour [1] [%] | % Edema Inhibition, 3 hours [1] [%] | % Edema Inhibition, 5 hours [1] [%] | Increase (of ulceration evaluation) [2] | Evaluation (ulceration of the gastric epithelium) [2] | Relative strength, Randall-Selitto test [3] | Relative strength, Tail pressure test [4] | anti-inflammatory versus antinociceptive action [1]
1 | Cc1cccc(Nc2ccccc2C(=O)O)c1C [N-(2',3'-xylyl) anthranylic acid (XAA), N-(2',3'-xylyl) anthranylic acid] | 19.32 | 24.7 | 23.4 | 1.2 | 4.2 | 1.04 | 0.2 | –
2 | CCCCC1C(=O)N(c2ccccc2)N(c2ccccc2)C1=O [Phenylbutazone] | – | – | – | 2.5 | 5.5 | – | – | –
3 | CC(C)(C)C(=O)OCOC(=O)c1ccccc1Nc1cccc(C(F)(F)F)c1 [Pivaloyloxymethyl N(3'-trifluorotolyl)-anthranylate] | 40.4 | 40.7 | 32.4 | 0.6 | 3.6 | 8.7 | 1.02 | act as anti-inflammatory agents more than as antinociceptive agents
4 | CC(=O)Oc1ccccc1C(=O)O [Acetylsalicylic acid (ASA), Acetylsalicylic acid] | 3.8 | 24.8 | 25.3 | 1.1 | 4.1 | 1.05 | 1.00 | –
5 | O=C(O)c1ccccc1Nc1cccc(C(F)(F)F)c1 [N-(3'-trifluorotolyl)-anthranylic acid] | 24.3 | 29.3 | 28.3 | 1.9 | 4.9 | 5.3 | 0.5 | –
6 | Cc1cccc(Nc2ccccc2C(=O)OCOC(=O)C(C)(C)C)c1C [Pivaloyloxymethyl N-(2',3'-xylyl)anthranylate] | 33.3 | 36.4 | 31.3 | 0.4 | 3.4 | 1.74 | 0.48 | act as anti-inflammatory agents more than as antinociceptive agents

From patent publication US4277496A, “Methods of treating mammals suffering from inflammation and pain” (Laboratorios Bago S.A., priority 1980, dated 1981)
